Source: ChEMBL document CHEMBL1201862, “PubChem BioAssay data set” (2004)
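Grown in 96-well plates, cells were treated for 48 hours with each compound at five concentrations. Insufficient inhibition: endpoint recorded as highest concentration tested. At the GI50, growth is halved.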 Active and inactive are the calls of the source. Rule as the data show it: active = GI50 up to about 1.1 µM and inactive = higher.

Tests used:
Experiment in all cases: NCI tumour cell line growth inhibition, 48 h
[1] = system: 786-0
[2] = system: COLO 205
[3] = system: DU-145
[4] = system: HCT-116
[5] = system: HCT-15
[6] = system: KM12
[7] = system: LOX IMVI
[8] = system: M14
[9] = system: Malme-3M
[10] = system: NCI-H23
[11] = system: NCI-H522
[12] = system: OVCAR-3
[13] = system: OVCAR-5
[14] = system: SF-295
[15] = system: SK-MEL-28
[16] = system: SK-OV-3
[17] = system: SNB-19
[18] = system: T47D
[19] = system: TK-10
[20] = system: UO-31

Row | SMILES | GI50 [1] | GI50 [2] | GI50 [3] | GI50 [4] | GI50 [5] [µM] | GI50 [6] | GI50 [7] | GI50 [8] | GI50 [9] | GI50 [10] | GI50 [11] | GI50 [12] | GI50 [13] | GI50 [14] | GI50 [15] | GI50 [16] | GI50 [17] | GI50 [18] | GI50 [19] | GI50 [20]
1 | N=c1oc2ccc(Cl)cc2cc1C(=O)NCc1ccccc1 | > 100 µM (inactive) | > 100 µM (inactive) | > 100 µM (inactive) | > 100 µM (inactive) | > 77.8 | 43.4 µM (inactive) | > 100 µM (inactive) | > 100 µM (inactive) | 18.4 µM (inactive) | > 100 µM (inactive) | 24.7 µM (inactive) | > 100 µM (inactive) | > 100 µM (inactive) | > 100 µM (inactive) | > 100 µM (inactive) | > 100 µM (inactive) | > 100 µM (inactive) | 39 µM (inactive) | > 100 µM (inactive) | > 61.7 µM (inactive)
2 | CCOCC(=O)N[C@H]1CCc2cc(OC)c(OC)c(OC)c2-c2ccc(SC)c(=O)cc21 | < 0.01 µM (active) | < 0.01 µM (active) | < 0.01 µM (active) | < 0.01 µM (active) | < 0.01 | < 0.01 µM (active) | < 0.01 µM (active) | < 0.01 µM (active) | < 0.01 µM (active) | < 0.01 µM (active) | < 0.01 µM (active) | < 0.01 µM (active) | 0.398 µM (active) | < 0.01 µM (active) | > 4.65 µM (inactive) | 0.0272 µM (active) | < 0.01 µM (active) | > 100 µM (inactive) | 0.406 µM (active) | 0.0188 µM (active)
3 | O=C1CC2(CCCc3sccc32)C(=O)N1 (stereo not given) | > 100 µM (inactive) | > 100 µM (inactive) | > 100 µM (inactive) | > 100 µM (inactive) | > 100 | > 100 µM (inactive) | > 100 µM (inactive) | > 100 µM (inactive) | > 100 µM (inactive) | > 100 µM (inactive) | > 100 µM (inactive) | > 100 µM (inactive) | > 100 µM (inactive) | > 100 µM (inactive) | > 100 µM (inactive) | > 100 µM (inactive) | > 100 µM (inactive) | > 100 µM (inactive) | > 100 µM (inactive) | > 100 µM (inactive)
4 | CC(CC(=O)O)(CC(=O)O)c1ccccc1 | > 100 µM (inactive) | > 100 µM (inactive) | > 100 µM (inactive) | > 100 µM (inactive) | > 100 | > 100 µM (inactive) | > 100 µM (inactive) | > 100 µM (inactive) | > 100 µM (inactive) | > 100 µM (inactive) | > 100 µM (inactive) | > 100 µM (inactive) | > 100 µM (inactive) | > 100 µM (inactive) | > 100 µM (inactive) | > 100 µM (inactive) | > 100 µM (inactive) | > 100 µM (inactive) | > 100 µM (inactive) | > 100 µM (inactive)
5 | O=c1c(Cc2ccc(Cl)cc2)nnc2sc(-c3ccc(-c4ccc(Cl)cc4Cl)o3)nn12 | 48 µM (inactive) | 72.3 µM (inactive) | 70 µM (inactive) | 27.5 µM (inactive) | 41.4 | 76.6 µM (inactive) | 47.1 µM (inactive) | 95.5 µM (inactive) | > 100 µM (inactive) | 66.5 µM (inactive) | 52.8 µM (inactive) | 34 µM (inactive) | 94.8 µM (inactive) | 83.6 µM (inactive) | > 100 µM (inactive) | > 100 µM (inactive) | 33.3 µM (inactive) | 74.5 µM (inactive) | > 100 µM (inactive) | 57.8 µM (inactive)
6 | CC(=O)OC/C=C/[C@H](O[Si](C)(C)C(C)(C)C)[C@@H](O)/C=C/COC(C)=O | > 100 µM (inactive) | > 100 µM (inactive) | > 100 µM (inactive) | > 100 µM (inactive) | > 100 | > 100 µM (inactive) | 76.6 µM (inactive) | > 100 µM (inactive) | > 100 µM (inactive) | > 100 µM (inactive) | > 100 µM (inactive) | > 100 µM (inactive) | > 100 µM (inactive) | > 100 µM (inactive) | > 100 µM (inactive) | > 100 µM (inactive) | > 100 µM (inactive) | > 100 µM (inactive) | > 100 µM (inactive) | > 100 µM (inactive)
7 | Cc1ccc(S(=O)(=O)n2c3c(c4ccccc42)CCN2C[C@H]([C@H](C)Br)CC[C@@H]32)cc1 | > 100 µM (inactive) | > 100 µM (inactive) | > 100 µM (inactive) |  | > 100 | > 100 µM (inactive) | > 100 µM (inactive) | > 100 µM (inactive) | > 100 µM (inactive) | > 100 µM (inactive) | > 100 µM (inactive) | > 100 µM (inactive) | > 100 µM (inactive) | > 100 µM (inactive) | > 100 µM (inactive) | > 100 µM (inactive) | > 100 µM (inactive) | > 100 µM (inactive) | > 100 µM (inactive) | > 100 µM (inactive)
8 | O/N=C1\CSc2ccccc2C1 | > 100 µM (inactive) | > 100 µM (inactive) | > 100 µM (inactive) | > 100 µM (inactive) | > 100 | > 100 µM (inactive) | > 100 µM (inactive) | > 100 µM (inactive) | > 100 µM (inactive) | > 100 µM (inactive) | > 100 µM (inactive) | > 100 µM (inactive) | > 100 µM (inactive) | > 100 µM (inactive) | > 100 µM (inactive) | > 100 µM (inactive) | > 100 µM (inactive) | > 100 µM (inactive) | > 100 µM (inactive) | > 100 µM (inactive)
9 | N#CSC1CCCCNC1=O (stereo not given) | 14.7 µM (inactive) | 15.5 µM (inactive) | 11.1 µM (inactive) | 8.45 µM (inactive) | 11.8 | 14.1 µM (inactive) | 13.5 µM (inactive) | 16.7 µM (inactive) | 14.4 µM (inactive) | 7.62 µM (inactive) | 8.09 µM (inactive) | 11.3 µM (inactive) | 2 µM (inactive) | 14.8 µM (inactive) | 13.4 µM (inactive) | 9.98 µM (inactive) | 15.2 µM (inactive) | 13 µM (inactive) | 16.1 µM (inactive) | 15.1 µM (inactive)
10 | Cc1cc2oc(C)c(S(=O)(=O)NC(=O)Nc3ccc(Cl)cc3)c(=O)c2c(=O)o1 | > 100 µM (inactive) | > 100 µM (inactive) | > 100 µM (inactive) | > 100 µM (inactive) | 23 | > 100 µM (inactive) | > 100 µM (inactive) | > 100 µM (inactive) | > 100 µM (inactive) | > 100 µM (inactive) | > 100 µM (inactive) | > 100 µM (inactive) | > 100 µM (inactive) | > 100 µM (inactive) | > 100 µM (inactive) | > 100 µM (inactive) | > 100 µM (inactive) | > 100 µM (inactive) | > 100 µM (inactive) | > 100 µM (inactive)
11 | CCN(CC)C(=O)N[C@@H](Cc1ccccc1)C(=O)NC | > 100 µM (inactive) | > 100 µM (inactive) | > 100 µM (inactive) | > 100 µM (inactive) | > 100 | > 100 µM (inactive) | > 100 µM (inactive) | > 100 µM (inactive) | > 100 µM (inactive) | > 100 µM (inactive) | > 100 µM (inactive) | > 100 µM (inactive) | > 100 µM (inactive) | > 100 µM (inactive) | > 100 µM (inactive) | > 100 µM (inactive) | > 100 µM (inactive) | > 100 µM (inactive) |  | > 100 µM (inactive)
12 | CC(=O)OC1C(COC(=O)c2ccccc2)OC(Nc2ncc(-c3ccc(Br)cc3)s2)C(OC(=O)c2ccccc2)C1OC(=O)c1ccccc1 (stereo not given) | 84.1 µM (inactive) | > 100 µM (inactive) | > 100 µM (inactive) | > 100 µM (inactive) | > 10 |  | > 100 µM (inactive) | > 100 µM (inactive) | > 100 µM (inactive) | > 100 µM (inactive) | > 100 µM (inactive) | > 100 µM (inactive) | > 100 µM (inactive) | > 100 µM (inactive) | > 100 µM (inactive) | > 100 µM (inactive) | > 100 µM (inactive) | > 100 µM (inactive) | > 100 µM (inactive) | > 100 µM (inactive)
13 | CCOC(=O)/C(C(C)=O)=C(\OC(C)=O)c1ccncc1C(=O)O | > 100 µM (inactive) | > 100 µM (inactive) | > 100 µM (inactive) | > 100 µM (inactive) | > 100 | > 100 µM (inactive) | > 100 µM (inactive) | > 100 µM (inactive) | > 100 µM (inactive) | > 100 µM (inactive) | > 100 µM (inactive) | > 100 µM (inactive) | > 100 µM (inactive) | > 100 µM (inactive) | > 100 µM (inactive) | > 100 µM (inactive) | > 100 µM (inactive) | > 100 µM (inactive) |  | > 100 µM (inactive)
14 | N#CCCCCC12C3C(=O)N(c4ccccc4)C(=O)C3ON1O[C@@H]1C(=O)N(c3ccccc3)C(=O)[C@@H]12 (stereo not given in full) | > 100 µM (inactive) | > 100 µM (inactive) | > 100 µM (inactive) |  | > 100 | > 100 µM (inactive) | > 100 µM (inactive) | > 100 µM (inactive) | > 100 µM (inactive) | > 100 µM (inactive) | > 100 µM (inactive) | > 100 µM (inactive) | > 100 µM (inactive) | > 100 µM (inactive) | > 100 µM (inactive) | > 100 µM (inactive) | > 100 µM (inactive) | > 100 µM (inactive) | > 100 µM (inactive) | > 100 µM (inactive)
